Source: patent US10669270B2, “Amide-sulfamide derivatives, compositions, and uses related to CXCR4 inhibition” (Emory University, priority 2016, dated 2020)
Entries after “also recorded” stand apart in the source; their conditions may differ.

How the values were obtained:
CXCR4 = target: T1, CXCR4 (Homo sapiens, UniProt P61073); assay: Primary binding affinity screening (competition with biotinylated TN14003 on MDA-MB-231 cells)
T1 construct: endogenous in cells; host or cells: MDA-MB-231
Method: For binding affinity assay, 2×10^4 MDA-MB-231 cells in 300 μL of cell culture medium were seeded in an 8-well slide chamber 2 days before the experiments were conducted. Various concentrations of different compounds (1, 10, 100, or 1000 nM) were added to the separate wells and incubated for 10 minutes at room temperature, and then the cells were fixed in 4% ice-cold paraformaldehyde. The cells were rehydrated in phosphate-buffered saline (PBS). The slides were subsequently incubated for 30 minutes at room temperature with 0.05 μg/mL biotinylated TN14003, washed three times with PBS, and incubated in streptavidin-rhodamine (1:150 dilution; Jackson ImmunoResearch Laboratories, West Grove, Pa.) for 30 minutes at room temperature. Finally, the slides were washed with PBS and mounted in an anti-fade mounting solution (Molecular Probes, Eugene, Oreg.), and the samples were analyzed on a Nikon Eclipse E800 microscope.

xylene-induced ear edema = assay: Xylene-induced ear inflammation suppression test; assay type: in vivo, mice; settings: for inflammation suppression (mouse ear edema): 10 mg/kg i.p., 30 minutes after xylene, sacrificed 2 hours later; for histological analysis of ear: ear damage, edema, inflammatory cells
Method: Five mice per group were used to determine the effect of the CXCR4 modulators. The inner and outer surfaces of the right ear of each mouse were treated with a total 30 μL of xylene for the induction of ear edema, whereas the left ear was treated with 30 μL of saline, which was used as a non-inflammation control. The selected compounds were dissolved in 10% DMSO and 90% of 45% (2-hydroxypropyl)-β-cyclodextrin (CD) in PBS. Thirty minutes after the application of xylene, 14 selected compounds were administered intraperitoneally (i.p.) at 10 mg/kg. Control animals received corresponding i.p. injections of the vehicle. The animals were sacrificed 2 hours later, and two ear plugs (7 mm in diameter) were removed from both the treated ear and the untreated ear. Weights of treated and untreated ear plugs were measured. The difference in weight of the two ear plugs was taken as a measure of edematous response. The inflammation-suppression percentage was calculated by comparing the drug-treated group to the control group.

[1] = tested on: CXCR4/CXCL12-mediated Akt phosphorylation; assay: Western blot analysis of Akt phosphorylation; assay type: cell-based
Method: Forty micrograms of protein were separated by SDS-PAGE and transferred to a PVDF membrane (Bio-Rad, Hercules, Calif., USA). The membrane was blocked for 30 min in a blocking solution (5% milk in Trisbuffered saline containing 0.1% Tween-20) and incubated overnight at 4° C. using monoclonal rabbit anti-phospho-Akt (Ser473) antibody (Cat No., 9271) and monoclonal rabbit anti-Akt (pan) antibody (cat No., 4691) at 1:500 in blocking solution. All antibodies were purchased from Cell Signaling Technology (Danvers, USA). The membrane was incubated for 1 hour with goat anti-rabbit IgG (H+L)-HRP conjugated secondary antibody at 1:10000 (Cat No. 1706515; Bio-rad, Hercules, USA) after washing. Enzyme-linked chemiluminescence was performed to detect hybridized protein bands.

[2] = tested on: bacterial-infected J774A.1 macrophages; assay: TNF-α secretion by bacterial-infected macrophages; assay type: cell-based
MDA-MB-231 cells [3] = assay: Cytotoxicity screening, MDA-MB-231; assay type: cell-based; settings: at 10 μM
[4] = Preliminary pharmacokinetic study (plasma stability); assay type: in vitro ADME
MCF-10A cells = assay: Cytotoxicity screening, MCF-10A; assay type: cell-based; settings: at 10 μM
MDA-MB-231 cells [5] = assay: Matrigel invasion assay; assay type: cell-based; settings: compounds 100 nM; CXCL12α 200 ng/mL; 22 hours
Method: Matrigel invasion assay was performed by using a Matrigel invasion chamber from Corning Biocoat (Bedford, Mass.). CXCL12α(200 ng/mL; R & D Systems, Minneapolis, Minn.) was added to the bottom chamber to induce the invasion of MDA-MB-231 cells through the Matrigel. The selected compounds (100 nM) or AMD3100 were added to the cells before the cells were seeded in the top chamber. The Matrigel invasion chamber was incubated for 22 hours in a humidified cell culture incubator. First, non-invading cells were removed from the top of the Matrigel with a cotton-tipped swab. Invading cells on the filter at the bottom of the Matrigel were fixed in methanol and stained with hematoxylin and eosin (H & E). The percent of invasion was determined by counting the H&E stained cellc.

T1 sequence (P61073 whole entry): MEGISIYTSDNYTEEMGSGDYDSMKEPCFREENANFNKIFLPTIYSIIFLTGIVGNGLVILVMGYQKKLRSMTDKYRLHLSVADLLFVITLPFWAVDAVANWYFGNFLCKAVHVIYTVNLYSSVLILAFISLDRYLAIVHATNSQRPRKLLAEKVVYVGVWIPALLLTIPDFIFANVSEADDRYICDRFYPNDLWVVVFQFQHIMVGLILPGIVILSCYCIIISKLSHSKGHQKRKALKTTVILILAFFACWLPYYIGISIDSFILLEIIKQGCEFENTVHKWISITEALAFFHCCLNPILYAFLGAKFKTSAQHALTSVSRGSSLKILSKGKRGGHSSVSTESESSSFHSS

Row | SMILES | melting point [°C] | inflammation suppression (mouse ear edema) (xylene-induced ear edema) [%] | histological analysis of ear (xylene-induced ear edema) | Matrigel invasion inhibition compared with AMD3100 (MDA-MB-231 cells [5]) | other results
1 | O=C(NCc1ccc(CNS(=O)(=O)c2ccccc2)cc1)c1ccccc1 [IIIa, N-(4-(phenylsulfonamidomethyl)benzyl)benzamide] | 139 to 141 | 62 |  |  | potency compared with AMD3100 (CXCR4; EC relative to AMD3100): 1000 fold; EC (CXCR4; MDA-MB-231 cells, compounds at 1, 10, 100, or 1000 nM, biotinylated TN14003): 1 nM
2 | Cc1ccc(S(=O)(=O)NCc2ccc(CNC(=O)c3ccc(F)cc3)cc2)cc1 [IIj, 4-Fluoro-N-(4-((4-methylphenylsulfonamido)methyl)benzyl)benzamide] | 187 to 189 | 75 | attenuated ear edema and damage substantially |  | CXCR4/CXCL12-mediated phosphorylation of Akt [1]: blocked the CXCR4/CXCL12-mediated phosphorylation of Akt in a dose-dependent manner; attenuation of the amount of TNF-α [2]: 59%; inhibition of proliferation (cytotoxicity) (MDA-MB-231 cells [3]): did not inhibit the proliferation; plasma stability [4]: favourable plasma stability; inhibition of proliferation (cytotoxicity) (MCF-10A cells): did not inhibit the proliferation
3 | O=C(NCc1ccc(CNS(=O)(=O)c2ccc3c(c2)CCO3)cc1)c1cccnc1 [Ia, N-(4-((2,3-dihydrobenzofuran-5-sulfonamido)methyl)benzyl)nicotinamide] | 137 to 139 |  |  | better activity than AMD3100 | 
4 | Cc1cc(C(=O)NCc2ccc(CNS(=O)(=O)c3ccc4c(c3)CCO4)cc2)n(C)n1 [If, N-(4-((2,3-dihydrobenzofuran-5-sulfonamido)methyl)benzyl)-1,3-dimethyl-1H-pyrazole-5-carboxamide] | 176 to 178 |  |  | comparable inhibition to the reference drug AMD3100 | 
5 | O=C(NCc1ccc(CNS(=O)(=O)c2ccc(F)cc2F)cc1)c1cncnc1 [Ig, N-(4-((2,4-difluorophenylsulfonamido)methyl)benzyl)pyrimidine-5-carboxamide] |  | 56 | significantly attenuated the ear damage and decreased the number of inflammatory cells | better activity than AMD3100 | CXCR4/CXCL12-mediated phosphorylation of Akt [1]: blocked the phosphorylation of Akt; also recorded: blocked the CXCR4/CXCL12-mediated Akt phosphorylation in a dose-dependent manner; TNF-α secretion ([2]; result in words): significantly suppressed
6 | O=C(NCc1ccc(CNS(=O)(=O)c2ccc3c(c2)CCO3)cc1)c1scc2c1OCCO2 [Ik] |  |  |  | better activity than AMD3100 | 
7 | Cc1nnsc1C(=O)NCc1ccc(CNS(=O)(=O)c2ccc(F)c(F)c2)cc1 [Im, N-(4-((3,4-difluorophenylsulfonamido)methyl)benzyl)-4-methyl-1,2,3-thiadiazole-5-carboxamide] |  | 54 | significantly attenuated the ear damage and decreased the number of inflammatory cells | comparable inhibition to the reference drug AMD3100 | 
